Assay results as given in US10994010B2, “Selective targeting of the CD40L/Mac-1 interaction by small peptide inhibitors and its use for the treatment of inflammation and atherogenesis” (Universitaetsklinikum Freiburg, priority 2010, dated 2021).
No end group written: not given here.

Key:
[1] = system: adhesion of THP-1 cells to CD40L; assay: Static adhesion assay: activated THP-1 cells on immobilized CD40L; format: cell-based; conditions: peptides 50 μM
Protocol: (§1) 96-well plates (Nunc) were coated with sCD40L and incubated with CHO cells expressing constitutively activated Mac-1, as described previously, or THP-1 cells. Cells were allowed to adhere for 20 to 50 minutes. Blocking antibodies (10 μg/ml) were pre-incubating with the cells. As indicated, assays were carried out in the presence of peptides (50 μM). Permeabilization buffer (6 mg/ml phosphatase substrate (Sigma), 1% Triton X-100, 50 mM sodium acetate, pH 5.5) was added to quantify adhering cells by colorimetric reaction. Alternatively, adhering cells were counted. Murine EC were isolated as previously described. Mac-1 expressing CHO were loaded with CFDA-SE (Invitrogen), allowed to adhere for 45 minutes, and quantified under the fluorescence microscope. […] Adhering and rolling cells were quantified in a parallel flow chamber system (Glycotech) at the indicated shear rates and in the presence of the indicated peptides (1 μM) or antibodies (10 μg/ml). […]
96-well plates (Nunc) were coated with sCD40L (10 μg/ml) in PBS overnight at 4° C. […] After removal of unbound cells by washing with PBS, permeabilization buffer (6 mg/ml phosphatase substrate (Sigma), 1% Triton X-100, 50 mM sodium acetate, pH 5.5) was added for 1 hour at 37° C. and adhering cells were quantified by colorimetric reaction at 405 nm. Alternatively, adhering cells were counted under the microscope (Zeiss). […]

CD40L = target: T1, CD40L (Homo sapiens, UniProt P29965); assay: Solid phase assay: direct binding of biotinylated CD40L to immobilized peptides
T1 construct: inserting the coding DNA for amino acids E^108 to L^261 in pHOG-21; c-myc (N); His (N); trimerization domain (N); made in house; host or cells: E. coli TG-1
T1 sequence (P29965 108-261): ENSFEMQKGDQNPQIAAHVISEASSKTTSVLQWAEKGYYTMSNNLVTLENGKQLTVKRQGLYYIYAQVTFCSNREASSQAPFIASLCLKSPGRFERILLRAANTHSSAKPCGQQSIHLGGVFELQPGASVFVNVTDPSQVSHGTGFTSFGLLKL
Protocol: (§2) Solid phase binding assay. Recombinant CD40L was incubated with immobilized Mac-1 I-domain in the presence or absence of blocking peptides. Binding of sCD40L was detected by addition of anti-cmyc-HRP (Invitrogen), TMB-substrate (Pierce), and colorimetric reaction. Alternatively, CD40L (Provitro) was immobilized, and binding of the recombinant Mac-1 I-domain was quantified by addition of anti-His-Biotin (Qiagen), and HRP-coupled streptavidin (Pierce). For the binding to immobilized peptides, CD40L was biotinylated with the Micro Biotinylation Kit (Sigma). A mixture of equal molarities of all peptides served as the positive control in this assay.
The recombinant Mac-1 I-domain was immobilized in 96-well plates (Nunc) in PBS at 4° C. overnight. […] Effect of the peptides M1-M8 was assessed by incubating CD40L (10 μg/ml) in the presence of peptides (50 μM). […] Binding was quantified by addition of TMB-substrate (Pierce), colorimetric reaction at 450 nm. […] Binding of the recombinant Mac-1 I-domain was quantified by addition of anti-His-Biotin monoclonal antibody (Qiagen), HRP-coupled streptavidin (Pierce) and colorimetric reaction at 450 nm. […] For quantification of the binding of CD40L to peptides, peptides were immobilized in 96-well plates overnight at 4° C. in 50 mM sodium carbonate, pH 10.6. […] Absorbance on BSA-coated wells served as negative control and was subtracted.

[2] = system: human granulocytes and monocytes; assay: Flow cytometry: binding of CD40L to human granulocytes and monocytes; format: cell-based
Protocol: (§3) Flow cytometric analysis, platelet activation assays, and quantification of leukocyte-platelet aggregates, were performed as previously described (Zirlik et al., 2007). Binding of cM7 to CD40L-expressing murine fibroblasts was determined by quantification of FITC-coupled cM7. Binding of CD40L to Mac-1 expressing CHO-cells or human leukocytes was performed by incubation with CD40L (10 μg/ml) and subsequent detection with anti-PentaHis antibody (Qiagen).
(§4) Flow cytometric analyses, as well as platelet activation assays and quantification of leukocyte-platelet aggregates were performed as previously described (Quezada et al., Ann. Rev. Immunol. (2004), pp 307-328). Briefly, murine blood samples were taken by intracardiac puncture. Red cells were lyzed in 155 mM NH4Cl, 5.7 mM K2HPO4, 0.1 mM EDTA, pH 7.3. […] Antibodies for epitope specific fluorescence-activated cell sorting (FACS Calibur, BD) included anti-CD11b, anti-CD115, anti-Gr-1, anti-CD4, anti-CD8, anti-CD20, anti-CD41, anti-CD62P, anti-CD54, anti-CD102, and anti-CD106 (all from Ebioscience). Binding of cM7 to CD40L- or mock-transfected murine fibroblasts was determined by incubation of FITC-cM7 at the indicated concentrations with cells for 30 min at 37° C. and subsequent quantification of the fluorescence in the FL-1 channel. […]

[3] = target: T2, CD40L binding to Mac-1 I-domain (Homo sapiens, UniProt P29965); assay: Solid phase binding assay: blocking of CD40L binding to immobilized Mac-1 I-domain by peptides; conditions: for blocking of CD40L / Mac-1 I-domain binding: peptides 50 μM
T2 construct: inserting the coding DNA for amino acids E^108 to L^261 in pHOG-21; His (N); trimerization domain (N); made in house
T2 sequence (P29965 108-261): T1 sequence (P29965 108-261)
Protocol: as §2
The recombinant Mac-1 I-domain was immobilized in 96-well plates (Nunc) in PBS at 4° C. overnight. After blocking in 2% BSA/PBS and subsequent washing with PBS, recombinant CD40L was added to the wells in the indicated concentrations and incubated for 2 hours at 37° C. Effect of the peptides M1-M8 was assessed by incubating CD40L (10 μg/ml) in the presence of peptides (50 μM). After removing of unbound CD40L by washing with 0.1% Tween-20/PBS, anti-c-myc-HRP (Invitrogen) was added and incubated for 2 hours at room temperature. Binding was quantified by addition of TMB-substrate (Pierce), colorimetric reaction at 450 nm. Alternatively, CD40L without a His-tag (Provitro) was immobilized and blocked as described above. Binding of the recombinant Mac-1 I-domain was quantified by addition of anti-His-Biotin monoclonal antibody (Qiagen), HRP-coupled streptavidin (Pierce) and colorimetric reaction at 450 nm. For the specific binding of the Mac-1 I-domain BSA-coated wells were subtracted from the CD40L-coated. Kd was estimated using a one-site binding hyperbola nonlinear regression model with the Software Prism (Graphpad). For quantification of the binding of CD40L to peptides, peptides were immobilized in 96-well plates overnight at 4° C. in 50 mM sodium carbonate, pH 10.6. CD40L was biotinylated using the Micro-Biotinylation-Kit (Sigma) following the manufacturer's instructions and detected by HRP-coupled streptavidin (Pierce) and colorimetric reaction. A mixture of equal molarities of all peptides served as positive control. Absorbance on BSA-coated wells served as negative control and was subtracted.

[4] = system: Mac-1 expressing CHO cells; assay: Flow cytometry: binding of CD40L to Mac-1 expressing CHO cells; format: cell-based; conditions: peptides 50 μM
Protocol: as §3, §4

[5] = system: adhesion of Mac-1-CHO cells to GPIbα; assay: Dynamic flow chamber assay: Mac-1-CHO cells on GPIbα; format: cell-based; conditions: peptides 1 μM
Protocol: as §1
For dynamic adhesion assays, 35 mm dishes were coated overnight at 4° C. with 1% BSA, CD40L, GPIbα (Abnova), ICAM-1 (R&D systems) or fibrinogen (Sigma), at a concentration of 10 μg/ml, and 30 μg/ml, respectively. […] Cells were quantified under the microscope (Olympus). […] Adhesion and rolling of peritoneal exudate cells on isolated murine endothelial cells was quantified as described above. […]

Sequence	blocking of adhesion of THP-1 cells to CD40L [1]	direct binding of CD40L to immobilized peptide (CD40L)	blocking of binding of CD40L to human granulocytes and monocytes [2]	IC50 ([3]; concentration dependent)	blocking of CD40L / Mac-1 I-domain binding [3]	blocking of binding of CD40L to Mac-1-CHO cells [4]	effect on adhesion of Mac-1-CHO cells to GPIbα [5]
EQLKKSKTL [Peptide M7]	most efficiently blocked adhesion of THP-1 cells to CD40L	mediated direct binding to CD40L	the only peptide blocking binding of CD40L to human granulocytes and monocytes	~4 µM	emerged as potential candidate inhibitors	neutralized binding of CD40L	
PITQLLGRTHTATGIRK (therapeutically active peptide) [Peptide M2, GPIbα-specific control peptide]					not affecting CD40L-Mac-1 binding		blocked the interaction between Mac-1 and GPIbα
